Drawing on US8048881B2, “Pyrimidine derivatives and their use as P2Y12 receptor antagonists” (Actelion Pharmaceuticals Ltd., priority 2005, dated 2011), this text covers IC50 for 19 molecules.

Where a name gives a salt, the structure may show the parent alone.

In this experiment the target is T1, human P2Y12 receptor (Homo sapiens, UniProt Q9H244).
T1 construct: expressed in transfected cells; host or cells: Chinese Hamster Ovary (CHO) cells
T1 sequence (Q9H244 whole entry): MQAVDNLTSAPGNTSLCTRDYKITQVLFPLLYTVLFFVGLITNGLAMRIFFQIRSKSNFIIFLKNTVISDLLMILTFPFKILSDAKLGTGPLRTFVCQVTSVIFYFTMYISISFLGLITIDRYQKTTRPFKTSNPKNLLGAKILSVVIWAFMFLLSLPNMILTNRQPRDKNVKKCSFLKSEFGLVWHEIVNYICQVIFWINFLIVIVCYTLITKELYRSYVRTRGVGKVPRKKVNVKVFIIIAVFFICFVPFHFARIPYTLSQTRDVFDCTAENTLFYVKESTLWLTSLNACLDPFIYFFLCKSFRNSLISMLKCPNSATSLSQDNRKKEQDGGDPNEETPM
Put plainly: P2Y12 receptor binding assay. Conditions: CHO cells with recombinant expression of the human P2Y12 receptor; tritium-labeled 2-methyl-S-ADP; incubation at room temperature for 2 hours. The protocol:
P2Y12 Receptor Binding Assay
Chinese Hamster Ovary (CHO) cells with recombinant expression of the human P2Y12 receptor were cultured in 24 well cell-culture plates. Cells were washed three times with binding buffer (50 mM Tris pH 7.4, 100 mM NaCl, 1 mM EDTA, 0.5% BSA). The cells were then incubated with 0.5 ml per well binding buffer containing tritium-labeled 2-methyl-thio-adenosine 5′-diphosphate (2-methyl-S-ADP) (between 100'000 and 300'000 dpm per well) and various concentrations of test compounds. After incubation at room temperature for 2 hours, cells were washed three times with binding buffer. Then, cells were solubilized by addition of 0.5 ml solubilization buffer (SDS, NaOH, EDTA). The content of each well was then transferred into beta-counter vials and 2.0 ml of Ultima Gold Scintillation liquid was added.
By IC50 is commonly meant the midpoint of a concentration-inhibition curve. In the case of `CCOC(=O)N1CCN(C(=O)C(Cc2cccc(OCC(=O)O)c2)NC(=O)c2cc(OC3CCCC3)nc(-c3ccccc3)n2)CC1` (stereo not shown) [Example 31, 4-{3-(3-carboxymethoxy-phenyl)-2-[(6-cyclopentyloxy-2-phenyl-pyrimidine-4-carbonyl)-amino]-propionyl}-piperazine-1-carboxylic acid ethyl ester], the half-maximal inhibitory concentration (IC50) turned out to be 592 nM.

On to `CCOC(=O)N1CCN(C(=O)[C@H](CC(=O)O)NC(=O)c2cc(OC3CCCC3)nc(-c3ccccc3)n2)CC1` [Example 2, 4-{(S)-3-carboxy-2-[(6-cyclopentyloxy-2-phenyl-pyrimidine-4-carbonyl)-amino]-propionyl}-piperazine-1-carboxylic acid ethyl ester], for which the concentration for half-maximal inhibition (IC50) turned out to be 243 nM.

As for `CCOC(=O)N1CCN(C(=O)[C@H](CCC(=O)O)NC(=O)c2cc(N(C)C)nc(-c3ccccc3)n2)CC1` [Example 79, 4-{(S)-4-carboxy-2-[(6-dimethylamino-2-phenyl-pyrimidine-4-carbonyl)-amino]-butyryl}-piperazine-1-carboxylic acid ethyl ester triflate salt], the 50% inhibitory concentration (IC50) amounted to 121 nM.

Regarding `CCOC(=O)N1CCN(C(=O)[C@H](CCC(=O)O)NC(=O)c2cc(N3CCOCC3)nc(-c3ccccc3)n2)CC1` [Example 225, 4-{(S)-4-carboxy-2-[(6-morpholin-4-yl-2-phenyl-pyrimidine-4-carbonyl)-amino]-butyryl}-piperazine-1-carboxylic acid ethyl ester formate salt], the IC50 turned out to be 100 nM.

In the case of `CCOC(=O)N1CCN(C(=O)[C@H](CO)NC(=O)c2cc(OC3CCCC3)nc(-c3ccccc3)n2)CC1` [Example 10, 4-{(S)-2-[(6-cyclopentyloxy-2-phenyl-pyrimidine-4-carbonyl)-amino]-3-hydroxy-propionyl}-piperazine-1-carboxylic acid ethyl ester], the 50% inhibitory concentration (IC50) was found to be 307 nM.

On to `CCOC(=O)N1CCN(C(=O)[C@H](CCC(=O)O)NC(=O)c2cc(-c3ccc[n+]([O-])c3)nc(-c3ccccc3)n2)CC1` [Example 418, 4-((S)-4-carboxy-2-{[6-(1-oxy-pyridin-3-yl)-2-phenyl-pyrimidine-4-carbonyl]-amino}-butyryl)-piperazine-1-carboxylic acid ethyl ester], for which the half-maximal inhibitory concentration (IC50) was found to be 129 nM.

On to `CCOC(=O)N1CCN(C(=O)[C@H](CCC(=O)O)NC(=O)c2cc(NC(C)COC)nc(-c3ccccc3)n2)CC1` (stereo partly drawn) [Example 223, 4-((S)-4-carboxy-2-{[6-(2-methoxy-1-methyl-ethylamino)-2-phenyl-pyrimidine-4-carbonyl]-amino}-butyryl)-piperazine-1-carboxylic acid ethyl ester formate salt], for which the half-maximal inhibitory concentration (IC50) is 97 nM.

For the molecule `CCOC(=O)N1CCN(C(=O)[C@H](CCC(=O)O)NC(=O)c2cc(OC3CCCC3)nc(-c3ccccc3)n2)CC1` [Example 1, 4-{(S)-4-carboxy-2-[(6-cyclopentyloxy-2-phenyl-pyrimidine-4-carbonyl)-amino]-butyryl}-piperazine-1-carboxylic acid ethyl ester], the concentration for half-maximal inhibition (IC50) was found to be 117 nM.

For the molecule `CCOC(=O)CCNc1cc(C(=O)N[C@@H](CCC(=O)O)C(=O)N2CCN(C(=O)OCC)CC2)nc(-c2ccccc2)n1` [Example 59, 4-((S)-4-carboxy-2-{[6-(2-ethoxycarbonyl-ethylamino)-2-phenyl-pyrimidine-4-carbonyl]-amino}-butyryl)-piperazine-1-carboxylic acid ethyl ester triflate salt], the IC50 turned out to be 276 nM.

Regarding `CCOC(=O)N1CCN(C(=O)[C@H](CCC(=O)O)NC(=O)c2cc(CSC3CCCC3)nc(-c3ccccc3)n2)CC1` [Example 378, 4-{(S)-4-carboxy-2-[(6-cyclopentylsulfanylmethyl-2-phenyl-pyrimidine-4-carbonyl)-amino]-butyryl}-piperazine-1-carboxylic acid ethyl ester], the IC50 stood at 157 nM.

`CCOC(=O)N1CCN(C(=O)[C@H](CCC(=O)O)NC(=O)c2cc(N[C@H]3CC[C@H](O)CC3)nc(-c3ccccc3)n2)CC1` [Example 243, 4-((S)-4-carboxy-2-{[6-(trans-4-hydroxy-cyclohexylamino)-2-phenyl-pyrimidine-4-carbonyl]-amino}-butyryl)-piperazine-1-carboxylic acid ethyl ester]: the IC50 was found to be 223 nM.

As for `CC(C)(C)NC(=O)N1CCN(C(=O)[C@H](CCC(=O)O)NC(=O)c2cc(OC3CCCC3)nc(-c3ccccc3)n2)CC1` [Example 435, (S)-5-(4-tert-butylcarbamoyl-piperazin-1-yl)-4-[(6-cyclopentyloxy-2-phenyl-pyrimidine-4-carbonyl)-amino]-5-oxo-pentanoic acid], the IC50 came to 94 nM.

In the case of `CCOC(=O)N1CCN(C(=O)[C@H](CCC(=O)O)NC(=O)c2cc(-c3cccc(C)c3)nc(-c3ccccc3)n2)CC1` [Example 94, 4-{(S)-4-carboxy-2-[(2-phenyl-6-m-tolyl-pyrimidine-4-carbonyl)-amino]-butyryl}-piperazine-1-carboxylic acid ethyl ester], the 50% inhibitory concentration (IC50) came out at 200 nM.

On to `CCOC(=O)N1CCN(C(=O)[C@H](CCC(=O)O)NC(=O)c2cc(NCC(C)O)nc(-c3ccccc3)n2)CC1` (stereo partly drawn) [Example 231, 4-((S)-4-carboxy-2-{[6-(2-hydroxy-propylamino)-2-phenyl-pyrimidine-4-carbonyl]-amino}-butyryl)-piperazine-1-carboxylic acid ethyl ester], for which the IC50 turned out to be 174 nM.

Regarding `C#Cc1cc(C(=O)N[C@@H](CCC(=O)O)C(=O)N2CCN(C(=O)OCC)CC2)nc(-c2ccccc2)n1` [Example 258, 4-{(S)-4-carboxy-2-[(6-ethynyl-2-phenyl-pyrimidine-4-carbonyl)-amino]-butyryl}-piperazine-1-carboxylic acid ethyl ester], the IC50 was found to be 253 nM.

For the molecule `CCOC(=O)N1CCN(C(=O)[C@H](CCC(=O)O)NC(=O)c2cc(C#CC(O)CC)nc(-c3ccccc3)n2)CC1` (stereo partly drawn) [Example 261, 4-((S)-4-carboxy-2-{[6-(3-hydroxy-pent-1-ynyl)-2-phenyl-pyrimidine-4-carbonyl]-amino}-butyryl)-piperazine-1-carboxylic acid ethyl ester], the IC50 is 126 nM.

With `CCCC(CCC)C(=O)Nc1cc(C(=O)N[C@@H](CCC(=O)O)C(=O)N2CCN(C(=O)OCC)CC2)nc(-c2ccccc2)n1` [Example 341, 4-((S)-4-carboxy-2-{[2-phenyl-6-(2-propyl-pentanoylamino)-pyrimidine-4-carbonyl]-amino}-butyryl)-piperazine-1-carboxylic acid ethyl ester], the IC50 came to 169 nM.

For `CCOC(=O)N1CCN(C(=O)[C@H](CCC(=O)O)NC(=O)c2cc(/C=C/CCO)nc(-c3ccccc3)n2)CC1` [Example 421, 4-((S)-4-carboxy-2-{[6-((E)-4-hydroxy-but-1-enyl)-2-phenyl-pyrimidine-4-carbonyl]-amino}-butyryl)-piperazine-1-carboxylic acid ethyl ester], the IC50 was 75 nM.

Turning to `CCOC(=O)N1CCN(C(=O)[C@H](Cc2ccc(C(=O)O)cc2)NC(=O)c2cc(OC3CCCC3)nc(-c3ccccc3)n2)CC1` [Example 21, 4-{(S)-3-(4-carboxy-phenyl)-2-[(6-cyclopentyloxy-2-phenyl-pyrimidine-4-carbonyl)-amino]-propionyl}-piperazine-1-carboxylic acid ethyl ester], the IC50 was 201 nM.
